“Also recorded” adds a separate entry of the source.

In the first test the test system is Punta Toro virus, yellow fever virus or Sindbis virus. It counts as cell-based.
As to `CC1CCCC2(C1)SCC(=O)N2NC(=O)c1[nH]c2ccc(Cl)cc2c1-c1ccccc1` (stereo not drawn) [Compound 4c, 5-Chloro-N-(7-methyl-3-oxo-1-thia-4-azaspiro[4.5]decan-4-yl)-3-phenyl-1H-indole-2-carboxamide], the “antiviral activity (in words)” value is given as “moderately active; also recorded: inhibitory effect”.
As for `CC1CCC2(CC1)SC(C)C(=O)N2NC(=O)c1[nH]c2ccc(Cl)cc2c1-c1ccccc1` (stereo not drawn) [Compound 5d, 5-Chloro-N-(2,8-dimethyl-3-oxo-1-thia-4-azaspiro[4.5]decan-4-yl)-3-phenyl-1H-indole-2-carboxamide], the “antiviral activity (in words)” value was “moderately active; also recorded: inhibitory effect”.
Turning to `CC1SC2(CCCCC2)N(NC(=O)c2[nH]c3ccc(Cl)cc3c2-c2ccccc2)C1=O` (stereo not drawn) [Compound 5b, 5-Chloro-N-(2-methyl-3-oxo-1-thia-4-azaspiro[4.5]decan-4-yl)-3-phenyl-1H-indole-2-carboxamide], the “antiviral activity (in words)” value is reported as “moderately active; also recorded: inhibitory effect”.
With `O=C(NN1C(=O)CSC12CCCCC2)c1[nH]c2ccc(Cl)cc2c1-c1ccccc1` [Compound 4b, 5-Chloro-N-(3-oxo-1-thia-4-azaspiro[4.5]decan-4-yl)-3-phenyl-1H-indole-2-carboxamide], the “antiviral activity (in words)” value is “moderately active; also recorded: inhibitory effect”.

A further test has as its system variety of DNA and RNA viruses. It counts as cell-based.
Take `CC1SC2(CCCC2)N(NC(=O)c2[nH]c3ccc(Cl)cc3c2-c2ccccc2)C1=O` (stereo not drawn) [Compound 5a, 5-Chloro-N-(2-methyl-3-oxo-1-thia-4-azaspiro[4.4]nonan-4-yl)-3-phenyl-1H-indole-2-carboxamide]: the “antiviral activity (in words)” value was “no antiviral activity”.
Still for that read-out and setting: as for `O=C(NN1C(=O)CSC12CCCC2)c1[nH]c2ccc(Cl)cc2c1-c1ccccc1` [Compound 4a, 5-Chloro-N-(3-oxo-1-thia-4-azaspiro[4.4]nonan-4-yl)-3-phenyl-1H-indole-2-carboxamide], the entry is “no antiviral activity”.

Source of the values: article PMC7087588 (Monatshefte Fur Chemie, 2019).
